Reference: patent US11541065B2, “Compositions and methods for treating brain injury” (UNM RAINFOREST INNOVATIONS, priority 2018, dated 2023)

How the values were obtained:
cPLA2 = cPLA2 activity in WT and GluN2A-KO mouse neuronal lysates; format: cell-based, mice; settings: L-homocysteine 50 μM, four hours
Protocol: Neuron cultures were treated with or without L-homocysteine in the presence or absence of pharmacological inhibitors for the time period specified in each experiment. The medium was collected from each experimental plate and centrifuged at 1000 rpm for five minutes to remove cellular debris. Equal amounts (100 μl) of the supernatant from each sample were used to determine the amount of PGE2 using the PGE2 enzyme immunoassay kit according to the manufacturer's instructions. For measurement of cPLA2 activity, the neuronal cells from the above treated conditions were harvested in ice-cold Tris-buffered saline (pH7.4) containing sodium pyrophosphate as phosphatase inhibitor, sonicated three times with five-second bursts and two minutes on ice between intervals. The lysed cell suspensions were centrifuged at 10,000 rpm for 10 minutes and the supernatant removed. Equal amounts of protein from the supernatant (assessed using BCA protein estimation kit) were estimated for activity of cPLA2 using cPLA2 activity assay kit according to the manufacturer's protocol.
For measurement of cPLA2 activity and MCP-1 levels in cell lysates, neuronal lysates were prepared by harvesting neurons in ice-cold Tris-buffered saline (pH 7.4) containing phosphatase inhibitor, sonicated three times in five-second bursts and placed on ice (two minutes) between each burst of sonication. […]

ERK MAPK = ERK MAPK phosphorylation in WT and GluN2A-KO mouse neuron cultures (immunoblot); format: cell-based, mice; settings: L-homocysteine 50 μM
Source text: Primary cortical neuronal cultures were established from embryos obtained from pregnant Sprague Dawley female rats (16-17 day gestation) as previously described (Podder and Paul, 2009, J Neurochem 110:1095-1106; Poddar and Paul, 2013, J Neurochem 124: 558-570). Primary cortical neuronal cultures were also developed from pregnant wildtype or GluN2A-knockout mice (15-16 day gestation) using similar protocols. The cells were maintained in culture for 12-14 days prior to treatment with homocysteine. L-homocysteine (200 mM stock) was prepared by alkali hydrolysis of L-homocysteine thiolactone hydrochloride followed by neutralization with 2N HCL and maintained in 0.02 mM N-Tris(hydroxymethyl)methyl-2-aminoethanesulfonicd acid (TES) buffer pH 7.4 (Poddar et al., 2001, Circulation 103:2717-2723). For receptor stimulation neurons were treated with freshly prepared 50 μM of L-homocysteine in Hank's balanced salt solution (Podder and Paul, 2009, J Neurochem 110:1095-1106; Poddar and Paul, 2013, J Neurochem 124: 558-570) containing 50 μM of glycine (Lipton et al., 1997, Proc Natl Acad Sci USA 94:5923-5928). In a subset of culture plates, pharmacological inhibitors (NVP-AAM007) were added […] prior to homocysteine addition and maintained during homocysteine treatment. Cells were processed for immunoblotting or Hoechst DNA staining.
Equal protein from total cell lysates obtained from rat and mice neuronal cultures were resolved in 7.5% SDS-PAGE, and subjected to immunoblotting procedure as described earlier (Podder and Paul, 2009, J Neurochem 110:1095-1106). Blots were analyzed with antibodies as described in each experiment. All primary antibodies (anti-pERK, anti-ERK) and secondary-horse radish peroxidase conjugated antibody concentrations were used according to recommendations provided by the manufacturer. Signals from immune complexes in the blots were developed using West Pico supersignal chemiluminescence reagents and then captured on X-ray films. Densitometric analysis of the images was performed using the Image J software.
Embryos obtained from pregnant Sprague Dawley rats (16-17-day gestation) or wild type (WT) and GluN2A KO mice (15-16-day gestation) were used to establish primary cortical neuronal cultures as previously described (Poddar and Paul, 2009, J Neurochem 110:1095-1106; Poddar and Paul, 2013, J Neurochem 124:558-570; Poddar et al., 2017, J Neurochem 142:560-573). Neurons were grown on either (a) 35-mm culture dishes (MatTek Corp., Ashland, Mass.) coated overnight with poly-D-lysine (50 μg/ml) and laminin (10 μg/ml) for Ca^2+ imaging studies, (b) poly-D-lysine-coated 60 mm dishes (Corning BIOCOAT, Corning Inc., Corning, N.Y.) for biochemical studies, or (c) poly-D-lysine-coated 4-well culture slides (Corning BIOCOAT, Corning Inc., Corning, N.Y.) for cell death assay. Neurons were maintained in culture for 12-13 days before experiment. The cells were treated with freshly prepared L-homocysteine (50 μM) in Hank's balanced salt solution containing 50 μM of glycine (Lipton et al., 1997, Proceedings of the National Academy of Sciences of the United States of America 94:5923-5928; Poddar and Paul, 2009, J Neurochem 110:1095-1106; Poddar and Paul, 2013, J Neurochem 124:558-570; Poddar et al., 2017, J Neurochem 142:560-573) for the specified time periods. In a parallel series of experiments, cells were treated with glutamate (50 μM) for the specified time periods. Cells were then processed for live cell imaging, immunoblotting or cell death assay. […]

MCP-1 = MCP-1 level in ischemic brain (ELISA); format: in vivo, Wistar rats; settings: HHcy rats, MCAO 60 minutes, six hours of reperfusion, NVP-AAM077 1.2 mg/kg intravenous at onset of insult
Protocol: Wistar rats were made hyperhomocysteinemic using osmotic pump containing L-homocysteine. Animals were hyperhomocysteinemic (19-23 μM) within three days of pump implantation. Ischemic stroke was induced by MCAO for 60 minutes followed by reperfusion for six hours. Tissue punches from the ipsilateral striatum and cortex were lysed in ice-cold Phosphate buffered saline (pH 7.4) containing phosphatase inhibitor, sonicated three times in five-second bursts and placed on ice (two minutes) between each burst of sonication. The lysed cell suspensions were centrifuged at 10,000 rpm (10 minutes) and the supernatant was collected in another tube. Equal amounts of protein from the supernatant were processed for PGE2 and MCP-1 levels using respective ELISA kit.

| SMILES | cPLA2 activity (cPLA2; neurons from GluN2A-KO mice) | cPLA2 activity (cPLA2; neurons from WT mice) | ERK MAPK phosphorylation (ERK MAPK; neurons from GluN2A KO mice, 30 or 60 minutes) | ERK MAPK phosphorylation (ERK MAPK; neurons from GluN2A-KO mice, four hours) | ERK MAPK phosphorylation (ERK MAPK; neurons from WT mice, 30 or 60 minutes) | ERK MAPK phosphorylation (ERK MAPK; neurons from WT mice, four hours) | MCP-1 level in ischemic hemisphere (cortex and striatum) (MCP-1) |
| --- | --- | --- | --- | --- | --- | --- | --- |
| N[C@@H](CCS)C(=O)O [L-homocysteine] | cPLA2 activity remain unchanged | cPLA2 activity increase significantly | fails to induce ERK MAPK phosphorylation | remains unchanged | sustained increase in ERK MAPK phosphorylation | significant increase in ERK MAPK phosphorylation | – |
| C[C@H](NC(c1cccc2[nH]c(=O)c(=O)[nH]c12)P(=O)(O)O)c1ccc(Br)cc1 (stereo partly drawn) [NVP-AAM077, ({[(1S)-1-(4-bromophenyl)ethyl]amino}-(2,3-dioxo-1,4-dihydroquinoxalin-5-yl)methyl)phosphonic acid] | – | – | – | – | – | – | attenuated the increase in the level of both PGE2 and MCP-1 |
